Data reported in PMC12090182, “Repurposing of the RIPK1-Selective Benzo[1,4]oxazepin-4-one Scaffold for the Development of a Type III LIMK1/2 Inhibitor” (ACS Chemical Biology, 2025).

Target: 468 kinases including some pathogenic mutants (Mycobacterium tuberculosis, UniProt P9WI81)
Assay: biochemical
Assay type: binding

SMILES: CN1C(=O)[C@@H](N2CCc3c(nn(Cc4ccccc4)c3C(N)=O)C2=O)COc2cc(Cl)ccc21 [Compound 10, (S)-2-benzyl-6-(8-chloro-5-methyl-4-oxo-2,3,4,5-tetrahydrobenzo[b][1,4]oxazepin-3-yl)-7-oxo-4,5,6,7-tetrahydro-2H-pyrazolo[3,4-c]pyridine-3-carboxamide]
- Percent Control: 100%
